Test results: article PMC3154276, “The Effect of the Potential PhoQ Histidine Kinase Inhibitors on Shigella flexneri Virulence” (PLoS ONE, 2011)

Tests used:
S. flexneri Sf9380 = assay: Mouse Sereny test (keratoconjunctivitis); on degree of keratoconjunctival inflammation: key: −: no disease; ±: little keratoconjunctivitis; +: mild keratoconjunctivitis; ++: keratoconjunctivitis with some purulence; +++: fully developed keratoconjunctivitis with great purulence; type: in vivo, BALB/c mice; conditions: for degree of keratoconjunctival inflammation: Sf9380 pre-treated at the concentration (I 1 12.5, I 2 25, I 3 and I 4 100 µmol/L); for keratoconjunctival inflammation (words, abstract): mice inoculated with pre-treated S. flexneri 9380
Excerpt: A Mouse Sereny test was used to investigate the inhibitory effect of the four potential PhoQ inhibitors on the virulence of S. flexneri Sf9380. The mice were infected with 1×10^8 CFUs per eye.
A Mouse Sereny test was used to evaluate the virulence of S. flexneri Sf9380 [48]. A single red colony of Sf9380 on Congo Red agar (Tryptic soy broth provided by Oxfoid Co. with 1.5% agar and 0.01% Congo red), was inoculated into LB and grown with or without potential PhoQ inhibitors (final concentration 100,50,25,12.5 or 6.25 µmol/L) at 37°C for 8 hours with constant shaking. The female BALB/c mice (about 18 g) were infected with 1×10^8 CFUs per eye. The eye of the mouse was inoculated with the bacterium with or without potential PhoQ inhibitor treatment (n = 6 mice in each group). […] In the experiment, mouse eyes inoculated with untreated Sf9380 (treated without DMSO) served as the positive control for keratoconjunctivitis, and mouse eyes inoculated with E. coli ATCC 25922 (treated without DMSO) served as the negative control. Because DMSO is the solvent of the potential PhoQ inhibitor, Sf9380 was treated with the same amount of DMSO (0.1%) as the other groups. The invasiveness of the bacteria was scored: no disease or mild irritation as “−”, + as mild conjunctivitis or late development and/or rapid clearing of symptoms, ++ as keratoconjunctivitis without purulence, and +++ as fully developed keratoconjunctivitis with purulence.

SF-PhoQc = target: T1, SF-PhoQc (Shigella flexneri, UniProt Q83RR1); assay: Pyrophosphate Reagent coupled enzymatic activity assay of SF-PhoQc; type: biochemical, S. flexneri 2a 301; conditions: for decrease of SF-PhoQc catalyzed consumption of ATP: Pyrophosphate Reagent
T1 construct: The amplified DNA segment encodes PhoQ HK amino acids 251–486; made in house; host or cells: E. coli JM109
T1 sequence (Q83RR1 251-486): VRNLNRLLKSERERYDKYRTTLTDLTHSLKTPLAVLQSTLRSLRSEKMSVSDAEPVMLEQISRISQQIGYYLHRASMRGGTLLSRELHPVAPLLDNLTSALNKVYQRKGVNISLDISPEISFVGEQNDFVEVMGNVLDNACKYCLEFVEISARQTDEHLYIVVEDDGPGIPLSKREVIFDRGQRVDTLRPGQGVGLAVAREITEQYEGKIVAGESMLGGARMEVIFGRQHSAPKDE
Method: The enzymatic activity of SF-PhoQc was determined using the Pyrophosphate Reagent, in which ATP initiates the reaction and ADP generated by ATP is accompanied by the reduction of NADH to NAD^+. The rate of NADH reduction to NAD^+ is detected by a change in absorbance readings at 340 nm. The activity of SF-PhoQc is measured by detecting a decrease in NADH at A340. Recombinant SF-PhoQc (25 µmol/L) was added to initiate the reaction, and the A340 value was recorded by SoftMax vision 4.8 each minute for 30 minutes. The A340 value reduced from 1.47 to 0.65 in the presence of SF-PhoQc (Figure 2).
Figure 2 The activity of recombinant SF-PhoQc. The activity of SF-PhoQc from the Pyrophosphate Reagent was shown. All assays were conducted in a 96-well microplate spectrophotometer. The assay mixture (total volume was 200 µl) contained 25 mmol/L KCl, 2.5 mmol/L MgCl2, 2 mmol/L ATP, 1 mmol/L phosphoendpyruvate, 0.35 mmol/L NADH, 1.5 U/ml PK, 1.25 U/ml LDH and 50 mmol/L Tris-Cl (pH 8.0). Protein SF-PhoQc was added to a final concentration of 25 µmol/L to start the reaction. After SF-PhoQc was added, the A340 value was recorded by SoftMax vision 4.8 every minute for 30 minutes.
The enzymatic activity of SF-PhoQc was measured using both a Pyrophosphate Reagent (Sigma-Aldrich, MO, USA) and a Luminescent Kinase Assay (Promega, WI, USA). The Pyrophosphate Reagent was performed to confirm the inhibitory activities of the effective potential PhoQ inhibitors in the bioinformatics approach. All reactions were carried out in solid black, flat-bottomed 96-well plates. The Pyrophosphate Reagent was performed at 28°C by monitoring the decrease of NADH by a decrease in absorbance readings at 340 nm (ε340 = 6180 M^−1·cm^−1) in the presence of ATP. The final reaction mixture for the Pyrophosphate Reagent contained 25 µmol/L purified SF-PhoQc, 25 mmol/L KCl, 2.5 mmol/L MgCl2, 2 mmol/L ATP, 1 mmol/L phosphoendpyruvate, 0.35 mmol/L NADH, 1.5 U/ml PK, 1.25 U/ml LDH and 50 mmol/L Tris-Cl (pH 8.0). The enzyme activity was determined in the presence of various concentrations of potential PhoQ inhibitors […] to investigate dose-dependent inhibition effects. The A340 value was recorded by SoftMax vision 4.8 every minute, for 30 minutes. The rate of SF-PhoQc enzymatic activity inhibition by a compound was calculated by the following formula: [drawing 1]
Rp (Ratio of Phosphorylation) was defined as the ratio of the decrease activity of SF-PhoQc treated with compound vs the activity of SF-PhoQc treated without compounds. Rp was stand for the percentage of decrease activity of SF-PhoQc.
IC50(the concentration of inhibition of 50%)values of potential PhoQ inhibitors were obtained by fitting the data to a sigmoid dose–response equation using Origin 7.0 software (OriginLab, Northampton, USA).

[1] = Erythrocyte hemolysis assay; type: cell-based; conditions: human erythrocytes (5% suspension), healthy human erythrocytes
Method: The hemolytic activity of the potential PhoQ inhibitors was determined using human erythrocytes. The erythrocytes were washed three times with sterile saline and resuspended to 5% cell concentration prior to assay. Then, 200 µl erythrocyte suspensions containing 25 µmol/L or 100 µmol/L concentrations of each potential PhoQ inhibitors were added in triplicate to the wells of the 96-well microtiter plates. Cells without potential PhoQ inhibitors treatment or with 1% Triton-100 treatment were used as the zero or 100% hemolysis control, respectively. The cell suspensions were incubated for 1 hour at 37°C and centrifuged for 10 minutes at 1200×g. Supernatants (100 µl) were transferred to another sterile plate, and the released hemoglobin was measured absorbance readings at 570 nm. […] The hemolysis assay was repeated twice.

[2] = Sf9380 pre-treated with 100 µmol/L, 1×10^8 CFUs per eye
[3] = Sf9380 pre-treated with 25 µmol/L, 1×10^8 CFUs per eye

With O=C(O)c1ccc(Cl)c(-c2ccc(/C=N/NC(=O)c3ccc(Br)cc3)o2)c1 [Compound 3] the “degree of keratoconjunctival inflammation” value (“degree” below) (S. flexneri Sf9380; 24 h, mouse 1) was “+”, the “degree” value (S. flexneri Sf9380; 24 h, mouse 2) was “+” and the “degree” value (S. flexneri Sf9380; 24 h, mouse 3) was “+”. The “degree” value (S. flexneri Sf9380; 24 h, mouse 4) was “+”, the “degree” value (S. flexneri Sf9380; 24 h, mouse 5) was “+” and the “degree” value (S. flexneri Sf9380; 24 h, mouse 6) was “+”. The “degree” value (S. flexneri Sf9380; 48 h, mouse 1) was “+”, the “degree” value (S. flexneri Sf9380; 48 h, mouse 2) was “−” and the “degree” value (S. flexneri Sf9380; 48 h, mouse 3) was “−”. The “degree” value (S. flexneri Sf9380; 48 h, mouse 4) was “−”, the “degree” value (S. flexneri Sf9380; 48 h, mouse 5) was “+” and the “degree” value (S. flexneri Sf9380; 48 h, mouse 6) was “−”. For the same compound, the “degree” value (S. flexneri Sf9380; 72 h, mouse 1) was “−”, the “degree” value (S. flexneri Sf9380; 72 h, mouse 2) was “+” and the “degree” value (S. flexneri Sf9380; 72 h, mouse 3) was “−”. For the same compound, the “degree” value (S. flexneri Sf9380; 72 h, mouse 4) was “−”, the “degree” value (S. flexneri Sf9380; 72 h, mouse 5) was “−” and the “degree” value (S. flexneri Sf9380; 72 h, mouse 6) was “−”. For the same compound, the “degree” value (S. flexneri Sf9380; 96 h, mouse 1) was “−”, the “degree” value (S. flexneri Sf9380; 96 h, mouse 2) was “−” and the “degree” value (S. flexneri Sf9380; 96 h, mouse 3) was “−”. The “degree” value (S. flexneri Sf9380; 96 h, mouse 4) was “−”, the “degree” value (S. flexneri Sf9380; 96 h, mouse 5) was “−” and the “degree” value (S. flexneri Sf9380; 96 h, mouse 6) was “−”. For the same compound, the “eye finding at 24 hours post-infection” value (S. flexneri Sf9380; [2]) was “slight conjunctival inflammation”, the “time by which keratoconjunctivitis was resolved” value (S. flexneri Sf9380; [2]) was ≤ 72 h and the “keratoconjunctival inflammation (words, abstract)” value (S. flexneri Sf9380) was “no inflammation”. The IC50 (SF-PhoQc) was 27.8 ± 10.7 µM, the “decrease of SF-PhoQc catalyzed consumption of ATP” value (SF-PhoQc) was 67.1% and the hemolysis at 1 h, 25 µmol/L [1] was < 0.1%. For the same compound, the hemolysis at 1 h, 100 µmol/L [1] was < 0.1%.
With CCOc1ccccc1-c1cc(C(=O)N/N=C/c2ccc(OCc3ccccc3)c(OC)c2)c2ccccc2n1 [Compound 2] the “degree” value (S. flexneri Sf9380; 24 h, mouse 1) was “+”, the “degree” value (S. flexneri Sf9380; 24 h, mouse 2) was “+” and the “degree” value (S. flexneri Sf9380; 24 h, mouse 3) was “+”. The “degree” value (S. flexneri Sf9380; 24 h, mouse 4) was “+”, the “degree” value (S. flexneri Sf9380; 24 h, mouse 5) was “+” and the “degree” value (S. flexneri Sf9380; 24 h, mouse 6) was “+”. For the same compound, the “degree” value (S. flexneri Sf9380; 48 h, mouse 1) was “−”, the “degree” value (S. flexneri Sf9380; 48 h, mouse 2) was “+” and the “degree” value (S. flexneri Sf9380; 48 h, mouse 3) was “−”. The “degree” value (S. flexneri Sf9380; 48 h, mouse 4) was “−”, the “degree” value (S. flexneri Sf9380; 48 h, mouse 5) was “−” and the “degree” value (S. flexneri Sf9380; 48 h, mouse 6) was “−”. For the same compound, the “degree” value (S. flexneri Sf9380; 72 h, mouse 1) was “−”, the “degree” value (S. flexneri Sf9380; 72 h, mouse 2) was “−” and the “degree” value (S. flexneri Sf9380; 72 h, mouse 3) was “−”. The “degree” value (S. flexneri Sf9380; 72 h, mouse 4) was “−”, the “degree” value (S. flexneri Sf9380; 72 h, mouse 5) was “−” and the “degree” value (S. flexneri Sf9380; 72 h, mouse 6) was “−”. The “degree” value (S. flexneri Sf9380; 96 h, mouse 1) was “−”, the “degree” value (S. flexneri Sf9380; 96 h, mouse 2) was “−” and the “degree” value (S. flexneri Sf9380; 96 h, mouse 3) was “−”. For the same compound, the “degree” value (S. flexneri Sf9380; 96 h, mouse 4) was “−”, the “degree” value (S. flexneri Sf9380; 96 h, mouse 5) was “−” and the “degree” value (S. flexneri Sf9380; 96 h, mouse 6) was “−”. For the same compound, the “eye finding at 24 hours after infection” value (S. flexneri Sf9380; [3]) was “slight conjunctival inflammation”, the “time by which keratoconjunctivitis was resolved” value (S. flexneri Sf9380; [3]) was ≤ 48 h and the “keratoconjunctival inflammation (words, abstract)” value (S. flexneri Sf9380) was “no inflammation”. The IC50 (SF-PhoQc) was 57 ± 1.04 µM, the “decrease of SF-PhoQc catalyzed consumption of ATP” value (SF-PhoQc) was 82.3% and the hemolysis at 1 h, 25 µmol/L [1] was < 0.1%. The hemolysis at 1 h, 100 µmol/L [1] was < 0.1%.
